Reference: patent US20240246918A1, “COMPOUNDS AND COMPOSITIONS AS EIF4E INHIBITORS AND THE USES THEREOF” (Ribometrix, Inc., priority 2022, published 2024)
pIC50: −log10 of the molar value. Read-outs that look alike come from different tables or passages of the source.

Experiments:
[1] = test system: cap-dependent translation in Flp-In-293 reporter cells; assay: Cellular cap-dependent translation inhibition assay (dual luciferase assay, DLA; Fluc/Rluc ratio, 24 hours); type: cell-based
human eIF4E protein = biological target: T1, human eIF4E protein (Homo sapiens, UniProt P06730); assay: Biochemical competitive binding assay (TR-FRET competition, EDA-m7GDP-ATTO-647N probe); conditions: read-out: hEIF4E TR-FRET IC50
T1 construct: purchased Novus NBP-45314
T1 sequence (P06730 whole entry): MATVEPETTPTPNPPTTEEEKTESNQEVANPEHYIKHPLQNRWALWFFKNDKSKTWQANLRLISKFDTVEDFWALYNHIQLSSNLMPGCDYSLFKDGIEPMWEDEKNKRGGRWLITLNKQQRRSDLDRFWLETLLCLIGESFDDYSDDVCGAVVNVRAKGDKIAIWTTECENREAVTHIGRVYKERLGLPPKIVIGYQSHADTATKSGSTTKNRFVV
How it was run: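 His-tagged human eIF4E (4 nM) was preincubated with Eu-anti-His antibody (2.5 nM) and added to compound (11-point, 4-fold dilutions) for 15 min. Then 5 nM EDA-m7GDP-ATTO-647N was added for 15 min, in HEPES pH 7.5, 100 mM KCl. The 665/620 TR-FRET ratio was normalized to controls, and IC50 was taken from 4-parameter fits.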

[2] = test system: COLO 205 colorectal tumor cells; assay: Tumor cell viability inhibition assay (CellTiter-Glo 2.0, 72 hours); type: cell-based; conditions: COLO 205 cell viability
How it was run: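 COLO 205 cells (1500/well, RPMI-1640 + 10% FBS) exposed for 72 h to an 11-point, 4-fold dilution series; cellular ATP read by CellTiter-Glo 2.0 luminescence. Data normalized to DMSO and maximum-inhibition controls; IC50 from 4-parameter curve fit.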

[3] = dual luciferase assay, Flp-In-293 reporter cells, 24 hours, Fluc/Rluc ratio, read-out: DLA 205 IC50
[4] = Homo sapiens, Flp-In-293, 24 h, dual luciferase assay, Flp-In-293 reporter cells, 24 hours, Fluc/Rluc ratio, read-out: DLA 205 IC50

Compound	pIC50 [1, 3]	pIC50 (human eIF4E protein)	pIC50 [2]	pIC50 [1, 4]	pIC50 ([2]; Homo sapiens, COLO 205, 72 h)	pIC50 ([1]; Homo sapiens, Flp-In-293, 24 h, read-out: DLA 205 IC50, dual luciferase assay, Flp-In-293 reporter cells, 24 hours, Fluc/Rluc ratio)	pIC50 ([2]; Homo sapiens)
Cc1cc(-c2cc(Cl)ccc2OCCn2c(C)nc3c(c2=O)CC(N(C)C2CCCC2(F)F)CC3)c2scc(C(=O)O)c2n1 (single isomer, unassigned) [Compound 301]	> 6.00	> 7.00	4.70 to 5.30	–	–	–	–
CC(=O)N(C)C1CCc2nc(C)n(CCOc3ccc(Cl)cc3-c3cc(C)nc4c(C(=O)O)csc34)c(=O)c2C1 (stereo not drawn) [Compound 38]	–	6.30 to 7.00	–	< 5.30	< 4.70	–	–
Cc1cc(-c2cc(Cl)ccc2OCCn2c(C)nc3c(c2=O)CC(N(C)C2CCCC2(F)F)CC3)c2scc(C(=O)O)c2n1 (single isomer, unassigned) [Compound 300]	–	> 7.00	–	> 6.00	> 5.30	–	–
Cc1cc(-c2cc(Cl)ccc2OCCn2c(C)nc3c(c2=O)CC(N2CC(F)(F)C4(CC4)C2)CC3)c2scc(C(=O)O)c2n1 (stereo not drawn) [Compound 279]	–	> 7.00	–	> 6.00	> 5.30	–	–
Cc1nc2c(c(=O)n1CC#Cc1ccc(Cl)cc1-c1ccnc3c(C(=O)NS(C)(=O)=O)csc13)CC(N1CC(F)C1)CC2 (stereo not drawn) [Compound 325]	–	> 7.00	–	> 6.00	> 5.30	–	–
Cc1nc2c(c(=O)n1CC#Cc1ccc(Cl)cc1-c1ccnc3c(C(=O)O)csc13)CC(N(C)C1CCN(CC(F)(F)F)CC1)CC2 (stereo not drawn) [Compound 275]	–	> 7.00	–	> 6.00	> 5.30	–	–
COC1CCN(C2CCc3nc(C)n(CCOc4ccc(Cl)cc4-c4cc(C)nc5c(C(=O)O)csc45)c(=O)c3C2)CC1 (stereo not drawn) [Compound 12]	–	> 7.00	–	> 6.00	> 5.30	–	–
Cc1cc(-c2cc(Cl)ccc2OCCn2c(C)nc3c(c2=O)CC(N(C)Cc2ccncc2)CC3)c2scc(C(=O)O)c2n1 (stereo not drawn) [Compound 16]	–	> 7.00	–	> 6.00	> 5.30	–	–
Cc1cc(-c2cc(Cl)ccc2OCCn2c(C)nc3c(c2=O)CC(N(C)C2CC24CCC4)CC3)c2scc(C(=O)O)c2n1 (stereo not drawn) [Compound 262]	–	> 7.00	–	> 6.00	> 5.30	–	–
Cc1cc(-c2cc(Cl)ccc2OCCn2c(C)nc3c(c2=O)CC(N(C)CC(F)F)CC3)c2scc(C(=O)NS(C)(=O)=O)c2n1 (stereo not drawn) [Compound 65]	–	> 7.00	–	> 6.00	> 5.30	–	–
CO[C@@H]1CCN([C@H]2CCc3nc(C)n(CCOc4ccc(Cl)cc4-c4cc(C)nc5c(C(=O)O)csc45)c(=O)c3C2)C1 (single isomer, unassigned) [Compound 43]	–	> 7.00	–	> 6.00	> 5.30	–	–
Cc1cc(-c2cc(Cl)ccc2OCCn2c(C)nc3c(c2=O)CC(N2CCC(F)(F)CC2)CC3)c2scc(C(=O)NS(C)(=O)=O)c2n1 (stereo not drawn) [Compound 52]	–	> 7.00	–	> 6.00	> 5.30	–	–
Cc1cc(-c2cc(Cl)ccc2OCCn2c(C)nc3c(c2=O)CC(N(C)C2CC2)CC3)c2sccc2n1 (single isomer, unassigned) [Compound 306]	< 5.30	5.30 to 6.30	–	–	4.70 to 5.30	–	–
Cc1nc2c(c(=O)n1CC#Cc1ccc(Cl)cc1-c1ccnc3c(C(=O)NS(C)(=O)=O)csc13)CC(N(C)C)CC2 (single isomer, unassigned) [Compound 273]	< 5.30	5.30 to 6.30	< 4.70	–	–	–	–
Cc1nc2c(c(=O)n1CC#Cc1ccc(Cl)cc1-c1ccnc3c(C(=O)O)csc13)C[C@H](N1CC[C@H](F)C1)CC2 (single isomer, unassigned) [Compound 294]	–	> 7.00	–	> 6.00	> 5.30	–	–
Cc1cc(-c2cc(Cl)ccc2OCCn2c(C)nc3c(c2=O)CC(N(CC(F)(F)F)C2CCC2)CC3)c2scc(C(=O)O)c2n1 (stereo not drawn) [Compound 83]	–	> 7.00	–	5.30 to 6.00	4.70 to 5.30	–	–
Cc1nc2c(c(=O)n1CC#Cc1ccc(Cl)cc1-c1ccnc3c(C(=O)O)csc13)CC(N1CC(F)(F)C1)CC2 (stereo not drawn) [Compound 85]	–	6.30 to 7.00	–	5.30 to 6.00	> 5.30	–	–
Cc1cc(-c2cc(Cl)ccc2OCCn2c(C)nc3c(c2=O)CC(N(CC(F)(F)F)C2CC2)CC3)c2scc(C(=O)NS(C)(=O)=O)c2n1 (single isomer, unassigned) [Compound 308]	–	6.30 to 7.00	–	5.30 to 6.00	4.70 to 5.30	–	–
Cc1nc2c(c(=O)n1CC#Cc1ccc(Cl)cc1-c1ccnc3c(C(=O)NS(C)(=O)=O)csc13)C[C@@H](N1CC[C@@H](F)C1)CC2 (single isomer, unassigned) [Compound 349]	–	> 7.00	–	> 6.00	> 5.30	–	–

Compound	pIC50 [1, 3]	pIC50 (human eIF4E protein)	pIC50 [2]	pIC50 [1, 4]	pIC50 ([2]; Homo sapiens, COLO 205, 72 h)	pIC50 ([1]; Homo sapiens, Flp-In-293, 24 h, read-out: DLA 205 IC50, dual luciferase assay, Flp-In-293 reporter cells, 24 hours, Fluc/Rluc ratio)	pIC50 ([2]; Homo sapiens)
Cc1cc(-c2cc(Cl)ccc2OCCn2c(C)nc3c(c2=O)CC(N(C)CCOC(F)(F)F)CC3)c2scc(C(=O)O)c2n1 (stereo not drawn) [Compound 41]	–	> 7.00	–	> 6.00	> 5.30	–	–
Cc1cc(-c2cc(Cl)ccc2OCCn2c(C)nc3c(c2=O)CC(N(C)Cc2ccncc2)CC3)c2scc(C(=O)NS(C)(=O)=O)c2n1 (single isomer, unassigned) [Compound 330]	–	> 7.00	–	> 6.00	> 5.30	–	–
Cc1cc(-c2cc(Cl)ccc2OCCn2c(C)nc3c(c2=O)CC(N(C)CC(F)F)CC3)c2scc(C(=O)O)c2n1 (stereo not drawn) [Compound 58]	–	> 7.00	–	> 6.00	> 5.30	–	–
COC(=O)c1csc2c(-c3cc(Cl)ccc3OCCn3c(C)nc4c(c3=O)CC(N(C3CC3)C3CC3)CC4)cc(C)nc12 (stereo not drawn) [Compound 339]	–	5.30 to 6.30	–	< 5.30	4.70 to 5.30	–	–
Cc1cc(-c2cc(Cl)ccc2OCCn2c(C)nc3c(c2=O)CC(N(C)C2CC2)CC3)c2scc(C(=O)NS(=O)(=O)c3ccncc3)c2n1 (single isomer, unassigned) [Compound 285]	5.30 to 6.00	> 7.00	4.70 to 5.30	–	–	–	–
Cc1cc(-c2cc(Cl)ccc2OCCn2c(C)nc3c(c2=O)CC(N(C)CC2(C)COC2)CC3)c2scc(C(=O)O)c2n1 (single isomer, unassigned) [Compound 344]	–	> 7.00	–	> 6.00	> 5.30	–	–
Cc1cc(-c2cc(Cl)ccc2OCCn2c(C)nc3c(c2=O)CC(N2CCC(F)(F)C2)CC3)c2scc(C(=O)NS(C)(=O)=O)c2n1 (stereo not drawn) [Compound 60]	–	> 7.00	–	> 6.00	> 5.30	–	–
Cc1cc(-c2cc(Cl)ccc2OCCn2c(C)nc3c(c2=O)CC(N(C)C24CC(C)(C2)C4(F)F)CC3)c2scc(C(=O)NS(C)(=O)=O)c2n1 (stereo not drawn) [Compound 288]	–	> 7.00	–	5.30 to 6.00	4.70 to 5.30	–	–
Cc1nc2c(c(=O)n1CC#Cc1ccc(Cl)cc1-c1ccnc3c(C(=O)O)csc13)C[C@@H](N1CC[C@H](F)C1)CC2 (single isomer, unassigned) [Compound 293]	–	> 7.00	–	> 6.00	> 5.30	–	–
Cc1cc(-c2cc(Cl)ccc2OCCn2c(C)nc3c(c2=O)CC(N(C)CC2(C)COC2)CC3)c2scc(C(=O)O)c2n1 (single isomer, unassigned) [Compound 345]	> 6.00	> 7.00	4.70 to 5.30	–	–	–	–
Cc1cc(-c2cc(Cl)ccc2OCCn2c(C)nc3c(c2=O)CC(N2CC(F)C2)CC3)c2scc(C(=O)O)c2n1 (stereo not drawn) [Compound 356]	–	> 7.00	–	> 6.00	> 5.30	–	–
Cc1nc2c(c(=O)n1CC#Cc1ccc(Cl)cc1-c1ccnc3c(C(=O)NS(C)(=O)=O)csc13)CC(N(C)Cc1ccncc1)CC2 (single isomer, unassigned) [Compound 295]	–	> 7.00	–	> 6.00	> 5.30	–	–
Cc1cc(-c2cc(Cl)ccc2OCCn2c(C)nc3c(c2=O)CC(N(C)C2CCCCC2)CC3)c2scc(C(=O)O)c2n1 (stereo not drawn) [Compound 69]	–	> 7.00	–	> 6.00	> 5.30	–	–
Cc1cc(-c2cc(Cl)ccc2OCCn2c(C)nc3c(c2=O)CC(N(C)C(=O)C2CCN(CC(F)(F)F)CC2)CC3)c2scc(C(=O)NS(C)(=O)=O)c2n1 (stereo not drawn) [Compound 82]	–	> 7.00	–	5.30 to 6.00	< 4.70	–	–
COC(=O)c1csc2c(-c3cc(Cl)ccc3OCCn3c(C)nc4c(c3=O)CC(N(CC(F)(F)F)C3CC3)CC4)cc(C)nc12 (stereo not drawn) [Compound 353]	–	5.30 to 6.30	–	< 5.30	< 4.70	–	–
Cc1cc(-c2cc(Cl)ccc2OCCn2c(C)nc3c(c2=O)CC(N(C)CC2(C)COC2)CC3)c2scc(C(=O)NS(C)(=O)=O)c2n1 (single isomer, unassigned) [Compound 305]	> 6.00	> 7.00	> 5.30	–	–	–	–
Cc1cc(-c2cc(Cl)ccc2OCCn2c(C)nc3c(c2=O)CC(N2CCC(F)(F)CC2)CC3)c2scc(C(=O)O)c2n1 (stereo not drawn) [Compound 32]	–	> 7.00	–	> 6.00	> 5.30	–	–
Cc1cc(-c2cc(Cl)ccc2OCCn2c(C)nc3c(c2=O)CC(N2CC(F)C2)CC3)c2scc(C(=O)NS(C)(=O)=O)c2n1 (single isomer, unassigned) [Compound 343]	> 6.00	> 7.00	> 5.30	–	–	–	–
Cc1cc(-c2cc(Cl)ccc2OCCn2c(C)nc3c(c2=O)CC(N2CCCC2)CC3)c2scc(C(=O)O)c2n1 (stereo not drawn) [Compound 4]	–	> 7.00	–	–	–	> 6.00	4.70 to 5.30
